Here are results for five molecules from patent US20100210602A1, “PhoU (PerF), A P[…] INVOLVED IN [sequence] FORMATION AND TOLERANCE TO MULTIPLE ANTIBIOTICS AND [sequence] AS A DRUG TARGET FOR [sequence] BACTERIA” (priority 2006, published 2010).

The subject of assay [1] is H37Rv. Nature of the assay: microbe, parasite or virus in culture. The assay is classed as cell-based, M. tuberculosis. The following applies: Mycobacterium tuberculosis.
Assay [2] deals with PhoU mutant JHU-313. Format: cell-based, E. coli.
In assay [3] the test system is parent strain H37Rv. Format: cell-based, M. tuberculosis. Conditions: 200 μg/ml.
Assay [4] relates to H37Rv. Nature of the assay: microbe, parasite or virus in culture. Format: cell-based, M. tuberculosis. Conditions: Mycobacterium tuberculosis, 240 h, pH 5.6, pH5.6, 10 days at 37° C.
The test system of assay [5] is wild type strain W3110. The assay can be described thus: microbe, parasite or virus in culture. Format: cell-based, E. coli. Conditions: for CFU remaining: stationary phase.
In assay [6] the test system is wild type strain W3110. The assay can be described thus: Weak acid susceptibility on LB agar pH 5.0. The assay is classed as cell-based, E. coli. The following applies: salicylic acid 80 μg/ml, pyrazinoic acid 230 μg/ml, overnight 37° C.
Assay [7] deals with PhoU mutant. Nature of the assay: Weak acid susceptibility on LB agar pH 5.0. Format: cell-based, E. coli. The following applies: salicylic acid 80 μg/ml, pyrazinoic acid 230 μg/ml, overnight 37° C.
Assay [8] relates to M. tuberculosis H37Rv. Nature of the assay: Killing of old stationary phase cells by PhoY2 inhibitors with TB drugs (CFU). Format: cell-based. Conditions: one and two week exposure, 37° C. The procedure: PhoY2 phosphatase activity inhibitors identified in the screen were tested for their ability to decrease persister formation in M. tuberculosis. […] After one and two week exposure, CFU (colony forming unit) was measured.

Assay [9] concerns the target T1, PhoY1 (Mycobacterium tuberculosis, UniProt P9WI97).
T1 sequence (P9WI97 1-221): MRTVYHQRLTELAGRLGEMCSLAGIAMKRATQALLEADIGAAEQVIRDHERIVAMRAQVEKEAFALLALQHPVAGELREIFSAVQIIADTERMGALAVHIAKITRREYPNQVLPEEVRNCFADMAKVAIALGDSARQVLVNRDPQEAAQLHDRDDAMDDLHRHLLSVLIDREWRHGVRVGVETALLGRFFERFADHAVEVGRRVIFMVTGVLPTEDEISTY
The assay can be described thus: EnzChek phosphatase assay. The assay is classed as biochemical, M. tuberculosis. Conditions: pH 5.5.

For assay [10], the target named is T2, E. coli PhoU (Escherichia coli, UniProt P0A9K7).
T2 construct: His; made in house
T2 sequence (P0A9K7 whole entry): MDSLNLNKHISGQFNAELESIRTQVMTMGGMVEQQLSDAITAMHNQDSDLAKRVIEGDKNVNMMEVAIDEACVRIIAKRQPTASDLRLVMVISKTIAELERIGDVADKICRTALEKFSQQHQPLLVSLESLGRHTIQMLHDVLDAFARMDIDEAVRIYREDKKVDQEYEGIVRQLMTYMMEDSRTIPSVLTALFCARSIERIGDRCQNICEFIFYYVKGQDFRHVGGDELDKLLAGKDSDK
The assay can be described thus: EnzChek phosphatase assay, DiFMUP substrate, pH 5.5. The assay is classed as biochemical. Conditions: pH 5.5, DiFMUP.
Protocol: In order to test PhoU for phosphatase activity, purified PhoU protein was analyzed using the EnzChek phosphatase assay kit (Invitrogen, Molecular Probes). Phosphatase activity was continuously monitored at acidic pH 5.5 and 6,8-difluoro-4-methylumbelliferyl phosphate (DiFMUP) was used as the substrate according to manufacturer's instruction.
Since most phosphatases have a metal requirement for activity, using either Mg^2+ or Zn^2+, the effects of various metal ions on the PhoU phosphatase enzyme activity were examined at acidic pH 5.5 and using DiFMUP as a substrate.
Phosphatase assays were performed using purified recombinant wild type and mutant PhoU proteins.

The target in assay [11] is PhoY2 (Mycobacterium tuberculosis, UniProt P9WI95). Nature of the assay: EnzChek phosphatase assay, FDA approved compound library screen. Conditions: pH 5.5. Format: biochemical, M. tuberculosis. The procedure: The FDA approved compound library consisting of about 3000 clinical compounds (50 μM final concentration) was screened for inhibitory activity for M. tuberculosis PhoU homolog PhoY2 for phosphatase activity using the EnzChek phosphatase assay kit in a 96 well plate format. The assay was run for 30 min, 60 min and overnight when the plates were read in a fluorescence plate reader (Perkin Elmer). Aurintricarboxylic acid, a known phosphatase inhibitor, was included as a positive control.
PhoY2, sequence (P9WI95 whole entry): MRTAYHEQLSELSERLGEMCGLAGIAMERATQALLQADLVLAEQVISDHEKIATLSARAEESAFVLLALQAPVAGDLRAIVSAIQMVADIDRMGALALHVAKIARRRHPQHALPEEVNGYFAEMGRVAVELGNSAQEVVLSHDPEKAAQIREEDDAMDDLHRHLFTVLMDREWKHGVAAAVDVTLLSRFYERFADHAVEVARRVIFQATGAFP

In brackets after ≈: the same amount, converted by molar mass. Read-outs that look alike come from different tables or passages of the source.

`NC(=O)c1cnccn1` [PZA, pyrazinamide]: the MBC in assay [1] (pH 5.9, read-out: MBC) was 400 µg/mL (≈ 3250 µM). Also, the MIC in assay [1] (pH 5.9, read-out: MIC) was 200 µg/mL (≈ 1620 µM); in assay [4] it was 200 µg/mL (≈ 1620 µM); in assay [5] (Escherichia coli, W3110, normal growing E. coli, pH 5.0) it was greater than 2000 µg/mL. Moreover, the killing of culture entry in assay [2] (pH 5) is recorded as “completely killed”. In assay [2] (stationary phase, 500 μg/ml, pH 5.0, 1 week), the viable bacteria left result was “no viable bacteria left”. The sterilization of culture entry in assay [2] (stationary phase, 2 mg/ml, pH 5.0, day 6) is given as “completely sterilized”. Also, the “CFU/ml 3 day” value in [3] is 3.1 × 10^5 CFU/ml. In addition, the “CFU/ml 9 day” value in assay [3] was 5.3 × 10^3 CFU/ml. Besides, the CFU left entry in [5] (pH 5) is recorded as “about 10^6 CFU/ml”. For the same molecule, the CFU remaining is recorded as 5×10^4 CFU/ml in [5] (500 μg/ml, pH 5.0, 1 week) and 6.7×10^6 CFU/ml in assay [5] (2 mg/ml, pH 5.0, day 6).

Take `O=C(O)c1cnccn1` [pyrazinoic acid]: the “growth on LB agar with weak acid” value in assay [6] is “resistant”; in [7], “lack of growth at ⅓ MIC”.

As for `O=C(O)c1ccccc1O` [salicylic acid], the “growth on LB agar with weak acid” value in assay [6] was “resistant”; in assay [7], “lack of growth at ⅓ MIC”.

In the case of Pyrantel tartrate, in assay [8], the “enhancement of INH, RIF or PZA activity” value is “could enhance the activity of INH, RIF or PZA”.

For the molecule phosphate, the “effect on PhoY1 phosphatase activity” value in assay [9] is listed as “inhibited”. Further, the “effect on PhoU phosphatase activity” value in assay [10] is on record as “inhibit the phosphatase activity”. Moreover, the “effect on PhoY2 phosphatase activity” value in assay [11] is given as “inhibited”.
